According to patent publication US20060069038A1, “Irreversible caspase-3 inhibitors as active site probes” (priority 2003, published 2006):
Numbering of substitutions follows the chain as printed.

Experiments:
caspase-3 = biological target: T1, caspase-3 (Rattus norvegicus, UniProt P55213); assay: Caspase-3 western blot in cultured rat thymocytes; format: cell-based; conditions: FIG. 5B
T1 construct: endogenous in cells; host or cells: primary rat thymocytes (Sprague-Dawley), spontaneous apoptosis in culture
T1 sequence (P55213 29-175 limits assumed): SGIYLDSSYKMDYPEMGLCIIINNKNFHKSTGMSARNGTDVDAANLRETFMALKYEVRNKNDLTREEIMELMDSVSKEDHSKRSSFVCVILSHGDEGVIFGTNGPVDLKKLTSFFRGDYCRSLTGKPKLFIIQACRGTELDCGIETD
T1 sequence (P55213 176-277 limits assumed): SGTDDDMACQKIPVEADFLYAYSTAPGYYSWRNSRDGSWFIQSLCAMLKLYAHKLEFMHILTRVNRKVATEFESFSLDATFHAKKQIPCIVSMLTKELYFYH
Experimental: Rat thymocytes were cultured for 24 hours at a density of 10×10^6 cells/ml in CytoSF4 supplemented with 2 mM L-glutamine and penicillin-streptamycin and the indicated concentration of caspase inhibitors.
Denatured protein extracts in 1× Laemli buffer were resolved through a 18% acrylamide gradient SDS-PAGE gel (Invitrogen) at 30 mA in Tris-Glycine buffer. Samples labeled with [^125I]-M808 were migrated until the dye front reached 0.5 cm above the end of the gel, and acrylamide 1 cm above the dye front was cut out to remove all free [^125I]-M808 and reduce background. The gels were fixed for 45 minutes in a 40% Methanol-10% Acetic acid solution and dried for 90 min at 80° C. before exposure on MS Kodak film with MS intensifying screens. For Western blotting, proteins were transferred onto a […] nitrocellulose membrane (Invitrogen) in Tris-Glycine-20% methanol buffer at 40V for 2 hours. Non-specific protein binding was minimized by incubating the membranes for 1 hour in blocking buffer (5% non-fat milk/TBS/0.1% Tween-20). Anti-caspase-3 (W R280 and MF467) were diluted 2000-fold in blocking buffer and incubated for 1 hour at 25° C. […] Densitometry was performed using a BioRad instrument and QuantityOne software. […]

[1] = biological target: T2, purified recombinant human caspase-3 (Homo sapiens, UniProt P42574); assay: Direct [125I]-M808 labeling of purified recombinant human caspase-3; format: binding; conditions: FIG. 2A lane 1
T2 construct: Active site shared between large and small caspase subunit
T2 sequence (P42574 29-175 limits assumed): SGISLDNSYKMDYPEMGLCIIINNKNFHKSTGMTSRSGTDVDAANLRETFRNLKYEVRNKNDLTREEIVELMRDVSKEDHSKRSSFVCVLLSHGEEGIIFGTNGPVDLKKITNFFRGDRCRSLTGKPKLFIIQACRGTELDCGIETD
T2 sequence (P42574 176-277 limits assumed): T1 sequence (P55213 176-277 limits assumed) with T3V, Q10H, R35K, L50Q, H53D, L77F
Experimental: The determination of caspase activity by [^125I]-M808 labeling was performed by pre-incubating purified recombinant human caspase-3 with indicated amounts of caspase inhibitor (M791) or vehicle (DMSO), for 1 hour at 25° C. in ICE buffer III (50 mM Hepes-KOH pH 7.0, 0.1% CHAPS, 10% sucrose, 2 mM EDTA), supplemented with 5 mM DTT. [^125I]-M808 was added to a final concentration of 1.25 μM and incubated for 5 min at 25° C. Active caspases in tissue or cell extracts were labeled by incubating 60-80 μg of lysate with [^125I]-M808 for 15 minutes at 25° C. Labeling was stopped by addition of Laemli buffer (2% SDS; 0.35 M O-mercaptoethanol; 50 mM Tris-Cl pH 6.8; 10% glycerol; 0.05% bromophenol blue) and by heating at 95° C. for 5 minutes. Caspase labeling in whole cells was performed as following. NT2 cells were plated in 24-well dishes (50 000 cells/well) in DMEM+10% FBS. The next day, media was replaced by media containing camptothecin (5 μg/ml) and the indicated amounts of caspase inhibitors. The culture media was removed after 5 hours of incubation and replaced by 100 μl of fresh media containing 12.5 nM [^125]-M808. After a 1 h incubation at 37° C., the media was removed, the cells were washed once with PBS and lysed in lysis buffer+25 μM M808. Cellular debris was removed by centrifugation at 13000 rpm for 10 min and boiled at 95° C. in Laemli buffer. […]

SMILES | impact on caspase-3 cleavage (caspase-3) | labeling of p17 subunit of caspase-3 [1]
CCCCCN(C)CC(=O)[C@H](CC(=O)O)NC(=O)[C@H](CC)n1cc(C(C)(C)C)nc(NCc2nonc2C)c1=O [Example M867, (3S)-3-({(2S)-2-[5-tert-butyl-3-{[(4-methyl-1,2,5-oxadiazol-3-yl)methyl]amino}-2-oxopyrazin-1(2H)-yl]butanoyl}amino)-5-[methyl(pentyl)amino]-4-oxopentanoic acid] | minimal impact on caspase-3 cleavage except at the highest concentration | 
COc1ccc(I)cc1CC(=O)N[C@H](C(=O)NC(CC(=O)O)C(=O)CF)C(C)C (stereo partly drawn) [[^125I]-M808, 5-fluoro-3-({N-[(5-iodo-2-methoxyphenyl)acetyl]-L-valyl}amino)-4-oxopentanoic acid] |  | covalently bound
